Test results reported in the NIST ThermoML archive (doi:10.1016/j.fluid.2018.05.028).

Assay: refractive index (Na D-line) (dimensionless); xn = mol fraction of the nth substance listed
Conditions: 101 kPa, Liquid, Standard Abbe refractometry

CCCCCCCC/C=C\CCCCCCCC(=O)OCC [ethyl (Z)-9-octadeceneoate] + CCCO
refractive index
Conditions | x2 = 0 | x2 = 0.1 | x2 = 0.2 | x2 = 0.3 | x2 = 0.4 | x2 = 0.5 | x2 = 0.6 | x2 = 0.7 | x2 = 0.8 | x2 = 0.9
293.15 K | 1.4494 | 1.4484 | 1.4468 | 1.4448 | 1.4422 | 1.4388 | 1.4346 | 1.4287 | 1.4205 | 1.408
298.15 K | 1.4474 | 1.4464 | 1.4448 | 1.4427 | 1.4401 | 1.4367 | 1.4325 | 1.4267 | 1.4184 | 1.4058
303.15 K | 1.4454 | 1.4444 | 1.4427 | 1.4406 | 1.4381 | 1.4347 | 1.4305 | 1.4246 | 1.4163 | 1.4037
308.15 K | 1.4433 | 1.4423 | 1.4407 | 1.4386 | 1.436 | 1.4326 | 1.4284 | 1.4225 | 1.4142 | 1.4016
313.15 K | 1.4414 | 1.4403 | 1.4386 | 1.4365 | 1.4339 | 1.4305 | 1.4262 | 1.4204 | 1.4121 | 1.3994
318.15 K | 1.4395 | 1.4382 | 1.4366 | 1.4344 | 1.4318 | 1.4284 | 1.4241 | 1.4183 | 1.4099 | 1.3973
323.15 K | 1.4375 | 1.4362 | 1.4345 | 1.4323 | 1.4297 | 1.4263 | 1.422 | 1.4161 | 1.4078 | 1.3952
328.15 K | 1.4355 | 1.4341 | 1.4325 | 1.4303 | 1.4276 | 1.4242 | 1.4199 | 1.4139 | 1.4057 | 1.393
333.15 K | 1.4335 | 1.4321 | 1.4304 | 1.4282 | 1.4255 | 1.422 | 1.4178 | 1.4118 | 1.4035 | 1.3907
338.15 K | 1.4315 | 1.4301 | 1.4284 | 1.4261 | 1.4234 | 1.4199 | 1.4156 | 1.4096 | 1.4013 | 1.3884
343.15 K | 1.4296 | 1.4281 | 1.4264 | 1.4241 | 1.4213 | 1.4178 | 1.4134 | 1.4074 | 1.3991 | 1.3861
